ChEMBL document CHEMBL4507257, “Data for DCP probe ABT-100” (2021)

What was measured:
[1] = molecular target: Activin receptor type-1B (Homo sapiens) (UniProt P36896); conditions: Compound concentration 1000.0 nM
[2] = molecular target: Bone morphogenetic protein receptor type-2 (Homo sapiens) (UniProt Q13873); conditions: Compound concentration 1000.0 nM
[3] = molecular target: Calcium/calmodulin-dependent protein kinase type II subunit beta (Homo sapiens) (UniProt Q13554); conditions: Compound concentration 1000.0 nM
[4] = molecular target: Cyclin-dependent kinase 7 (Homo sapiens, UniProt P50613); conditions: Compound concentration 1000.0 nM
[5] = molecular target: Tyrosine-protein kinase CSK (Homo sapiens) (UniProt P41240); conditions: Compound concentration 1000.0 nM
[6] = molecular target: Casein kinase I isoform gamma-2 (Homo sapiens) (UniProt P78368); conditions: Compound concentration 1000.0 nM
[7] = molecular target: Serine/threonine-protein kinase 17B (Homo sapiens) (UniProt O94768); conditions: Compound concentration 1000.0 nM
[8] = molecular target: Dual specificity tyrosine-phosphorylation-regulated kinase 1B (Homo sapiens) (UniProt Q9Y463); conditions: Compound concentration 1000.0 nM
[9] = molecular target: Dual specificity tyrosine-phosphorylation-regulated kinase 2 (Homo sapiens) (UniProt Q92630); conditions: Compound concentration 1000.0 nM
[10] = tested on: Epidermal growth factor receptor (Homo sapiens), P00533 [UNDEFINED MUTATION]; conditions: Compound concentration 1000.0 nM
[11] = molecular target: Ephrin type-A receptor 2 (Homo sapiens) (UniProt P29317); conditions: Compound concentration 1000.0 nM
[12] = molecular target: Receptor tyrosine-protein kinase erbB-3 (Homo sapiens) (UniProt P21860); conditions: Compound concentration 1000.0 nM
[13] = molecular target: Fibroblast growth factor receptor 1 (Homo sapiens) (UniProt P11362); conditions: Compound concentration 1000.0 nM
[14] = tested on: Receptor-type tyrosine-protein kinase FLT3 (Homo sapiens), P36888 [R834Q]; conditions: Compound concentration 1000.0 nM
[15] = molecular target: Homeodomain-interacting protein kinase 4 (Homo sapiens) (UniProt Q8NE63); conditions: Compound concentration 1000.0 nM
[16] = molecular target: Mitogen-activated protein kinase kinase kinase kinase 1 (Homo sapiens) (UniProt Q92918); conditions: Compound concentration 1000.0 nM
[17] = molecular target: Tyrosine-protein kinase JAK3 (Homo sapiens) (UniProt P52333); conditions: Compound concentration 1000.0 nM
[18] = molecular target: Mitogen-activated protein kinase 9 (Homo sapiens) (UniProt P45984); conditions: Compound concentration 1000.0 nM
[19] = molecular target: Mitogen-activated protein kinase 10 (Homo sapiens) (UniProt P53779); conditions: Compound concentration 1000.0 nM
[20] = molecular target: Serine/threonine-protein kinase 10 (Homo sapiens) (UniProt O94804); conditions: Compound concentration 1000.0 nM
[21] = molecular target: Dual specificity mitogen-activated protein kinase kinase 4 (Homo sapiens) (UniProt P45985); conditions: Compound concentration 1000.0 nM
[22] = molecular target: Dual specificity mitogen-activated protein kinase kinase 6 (Homo sapiens) (UniProt P52564); conditions: Compound concentration 1000.0 nM
[23] = molecular target: Hepatocyte growth factor receptor (Homo sapiens) (UniProt P08581); conditions: Compound concentration 1000.0 nM
[24] = tested on: Hepatocyte growth factor receptor (Homo sapiens), P08581 [M1250T]; conditions: Compound concentration 1000.0 nM
[25] = molecular target: Serine/threonine-protein kinase MRCK alpha (Homo sapiens) (UniProt Q5VT25); conditions: Compound concentration 1000.0 nM
[26] = molecular target: Serine/threonine-protein kinase Nek11 (Homo sapiens) (UniProt Q8NG66); conditions: Compound concentration 1000.0 nM
[27] = molecular target: cAMP-dependent protein kinase catalytic subunit alpha (Homo sapiens) (UniProt P17612); conditions: Compound concentration 1000.0 nM
[28] = molecular target: Membrane-associated tyrosine- and threonine-specific cdc2-inhibitory kinase (Homo sapiens) (UniProt Q99640); conditions: Compound concentration 1000.0 nM
[29] = molecular target: Serine/threonine-protein kinase PknB (Mycobacterium tuberculosis) (UniProt P9WI81); conditions: Compound concentration 1000.0 nM
[30] = molecular target: Protein kinase C iota type (Homo sapiens) (UniProt P41743); conditions: Compound concentration 1000.0 nM
[31] = molecular target: Interferon-induced, double-stranded RNA-activated protein kinase (Homo sapiens) (UniProt P19525); conditions: Compound concentration 1000.0 nM
[32] = molecular target: Receptor-interacting serine/threonine-protein kinase 1 (Homo sapiens) (UniProt Q13546); conditions: Compound concentration 1000.0 nM
[33] = molecular target: Receptor-interacting serine/threonine-protein kinase 2 (Homo sapiens) (UniProt O43353); conditions: Compound concentration 1000.0 nM
[34] = molecular target: Proto-oncogene tyrosine-protein kinase ROS (Homo sapiens) (UniProt P08922); conditions: Compound concentration 1000.0 nM
[35] = molecular target: Serine/threonine-protein kinase Sgk2 (Homo sapiens) (UniProt Q9HBY8); conditions: Compound concentration 1000.0 nM
[36] = molecular target: Serine/threonine-protein kinase SIK1 (Homo sapiens) (UniProt P57059); conditions: Compound concentration 1000.0 nM
[37] = molecular target: STE20-like serine/threonine-protein kinase (Homo sapiens) (UniProt Q9H2G2); conditions: Compound concentration 1000.0 nM
[38] = molecular target: Serine/threonine-protein kinase 35 (Homo sapiens) (UniProt Q8TDR2); conditions: Compound concentration 1000.0 nM
[39] = molecular target: Serine/threonine-protein kinase TAO2 (Homo sapiens) (UniProt Q9UL54); conditions: Compound concentration 1000.0 nM
[40] = molecular target: Dual specificity testis-specific protein kinase 1 (Homo sapiens) (UniProt Q15569); conditions: Compound concentration 1000.0 nM
[41] = molecular target: Tyrosine-protein kinase TXK (Homo sapiens) (UniProt P42681); conditions: Compound concentration 1000.0 nM
[42] = molecular target: Tyrosine-protein kinase receptor TYRO3 (Homo sapiens) (UniProt Q06418); conditions: Compound concentration 1000.0 nM
[43] = molecular target: Tyrosine-protein kinase Yes (Homo sapiens) (UniProt P07947); conditions: Compound concentration 1000.0 nM
[44] = molecular target: Beta-2 adrenergic receptor (Homo sapiens) (UniProt P07550); conditions: Compound concentration 10.0 uM
[45] = molecular target: Muscarinic acetylcholine receptor M3 (Homo sapiens) (UniProt P20309); conditions: Compound concentration 10.0 uM

Chain of Serine/threonine-protein kinase MRCK alpha (Homo sapiens) (Q5VT25 whole entry): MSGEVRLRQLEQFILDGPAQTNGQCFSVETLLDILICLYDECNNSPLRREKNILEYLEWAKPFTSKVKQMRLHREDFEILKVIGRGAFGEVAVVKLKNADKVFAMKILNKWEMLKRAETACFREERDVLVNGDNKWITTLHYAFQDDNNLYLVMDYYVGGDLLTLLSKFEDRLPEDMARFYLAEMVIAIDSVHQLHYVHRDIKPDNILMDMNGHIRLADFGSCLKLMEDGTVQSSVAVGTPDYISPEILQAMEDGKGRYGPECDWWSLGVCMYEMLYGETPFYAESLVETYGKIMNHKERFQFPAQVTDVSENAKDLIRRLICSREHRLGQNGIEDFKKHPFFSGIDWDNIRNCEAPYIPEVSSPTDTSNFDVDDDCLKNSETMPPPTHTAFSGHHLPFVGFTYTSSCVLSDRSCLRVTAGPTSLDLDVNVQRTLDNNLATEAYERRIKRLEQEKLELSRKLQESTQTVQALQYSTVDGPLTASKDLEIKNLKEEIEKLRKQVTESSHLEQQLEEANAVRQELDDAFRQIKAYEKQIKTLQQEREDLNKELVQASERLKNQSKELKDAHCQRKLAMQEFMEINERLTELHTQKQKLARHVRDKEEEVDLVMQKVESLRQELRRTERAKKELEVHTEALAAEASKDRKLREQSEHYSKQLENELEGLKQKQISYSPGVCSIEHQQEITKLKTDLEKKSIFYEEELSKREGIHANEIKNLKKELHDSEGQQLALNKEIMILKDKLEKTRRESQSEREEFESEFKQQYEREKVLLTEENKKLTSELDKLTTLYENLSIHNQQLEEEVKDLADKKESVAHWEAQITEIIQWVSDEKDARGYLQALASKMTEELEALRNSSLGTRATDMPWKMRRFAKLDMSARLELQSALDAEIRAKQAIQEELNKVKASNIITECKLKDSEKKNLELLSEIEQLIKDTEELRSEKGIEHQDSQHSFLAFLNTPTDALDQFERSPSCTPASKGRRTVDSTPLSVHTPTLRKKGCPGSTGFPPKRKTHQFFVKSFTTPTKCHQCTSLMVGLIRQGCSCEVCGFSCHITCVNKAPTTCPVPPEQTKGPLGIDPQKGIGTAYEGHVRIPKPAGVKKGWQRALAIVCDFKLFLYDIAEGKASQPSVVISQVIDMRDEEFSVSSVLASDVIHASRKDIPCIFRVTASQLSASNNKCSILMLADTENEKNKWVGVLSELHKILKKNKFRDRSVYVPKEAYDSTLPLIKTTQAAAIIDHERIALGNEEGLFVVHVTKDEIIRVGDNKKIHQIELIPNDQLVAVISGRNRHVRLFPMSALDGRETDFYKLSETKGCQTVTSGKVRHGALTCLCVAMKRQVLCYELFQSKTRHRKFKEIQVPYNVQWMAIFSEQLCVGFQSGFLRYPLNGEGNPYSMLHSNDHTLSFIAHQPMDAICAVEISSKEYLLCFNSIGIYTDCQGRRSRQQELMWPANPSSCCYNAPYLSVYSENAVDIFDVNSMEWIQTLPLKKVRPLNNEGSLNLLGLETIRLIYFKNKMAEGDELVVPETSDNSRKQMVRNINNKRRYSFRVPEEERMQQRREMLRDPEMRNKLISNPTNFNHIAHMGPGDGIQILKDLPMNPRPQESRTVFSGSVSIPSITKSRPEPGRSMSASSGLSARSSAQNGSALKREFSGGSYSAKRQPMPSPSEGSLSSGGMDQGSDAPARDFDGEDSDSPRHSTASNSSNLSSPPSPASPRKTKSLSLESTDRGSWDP
Chain of Serine/threonine-protein kinase Sgk2 (Homo sapiens) (Q9HBY8 whole entry): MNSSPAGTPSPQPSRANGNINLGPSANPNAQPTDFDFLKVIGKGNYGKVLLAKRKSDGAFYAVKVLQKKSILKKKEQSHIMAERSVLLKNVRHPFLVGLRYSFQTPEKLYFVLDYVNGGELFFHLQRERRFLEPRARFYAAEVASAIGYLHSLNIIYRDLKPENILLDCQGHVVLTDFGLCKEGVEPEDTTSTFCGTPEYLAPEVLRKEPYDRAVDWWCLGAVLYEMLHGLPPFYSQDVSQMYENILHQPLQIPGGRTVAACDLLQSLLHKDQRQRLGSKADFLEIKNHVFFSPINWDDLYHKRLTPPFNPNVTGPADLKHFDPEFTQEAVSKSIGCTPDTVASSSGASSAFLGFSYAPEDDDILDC
Chain of Protein kinase C iota type (Homo sapiens) (P41743 whole entry): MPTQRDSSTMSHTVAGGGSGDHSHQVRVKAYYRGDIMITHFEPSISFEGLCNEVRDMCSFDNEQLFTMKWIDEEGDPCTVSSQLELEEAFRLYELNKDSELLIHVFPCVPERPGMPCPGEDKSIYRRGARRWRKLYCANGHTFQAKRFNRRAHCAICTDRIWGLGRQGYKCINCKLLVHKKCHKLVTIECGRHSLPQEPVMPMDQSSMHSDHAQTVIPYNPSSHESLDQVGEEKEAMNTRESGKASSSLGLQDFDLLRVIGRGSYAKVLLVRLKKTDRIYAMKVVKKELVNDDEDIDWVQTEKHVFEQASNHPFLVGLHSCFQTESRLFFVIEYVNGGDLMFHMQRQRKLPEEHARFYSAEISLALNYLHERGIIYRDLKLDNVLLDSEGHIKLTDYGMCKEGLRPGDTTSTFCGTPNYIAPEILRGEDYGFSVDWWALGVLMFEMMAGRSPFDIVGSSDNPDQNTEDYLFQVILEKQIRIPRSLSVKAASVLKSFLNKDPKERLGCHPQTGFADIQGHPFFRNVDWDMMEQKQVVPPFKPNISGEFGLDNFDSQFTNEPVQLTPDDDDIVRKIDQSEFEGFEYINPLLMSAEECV
Chain of Homeodomain-interacting protein kinase 4 (Homo sapiens) (Q8NE63 whole entry): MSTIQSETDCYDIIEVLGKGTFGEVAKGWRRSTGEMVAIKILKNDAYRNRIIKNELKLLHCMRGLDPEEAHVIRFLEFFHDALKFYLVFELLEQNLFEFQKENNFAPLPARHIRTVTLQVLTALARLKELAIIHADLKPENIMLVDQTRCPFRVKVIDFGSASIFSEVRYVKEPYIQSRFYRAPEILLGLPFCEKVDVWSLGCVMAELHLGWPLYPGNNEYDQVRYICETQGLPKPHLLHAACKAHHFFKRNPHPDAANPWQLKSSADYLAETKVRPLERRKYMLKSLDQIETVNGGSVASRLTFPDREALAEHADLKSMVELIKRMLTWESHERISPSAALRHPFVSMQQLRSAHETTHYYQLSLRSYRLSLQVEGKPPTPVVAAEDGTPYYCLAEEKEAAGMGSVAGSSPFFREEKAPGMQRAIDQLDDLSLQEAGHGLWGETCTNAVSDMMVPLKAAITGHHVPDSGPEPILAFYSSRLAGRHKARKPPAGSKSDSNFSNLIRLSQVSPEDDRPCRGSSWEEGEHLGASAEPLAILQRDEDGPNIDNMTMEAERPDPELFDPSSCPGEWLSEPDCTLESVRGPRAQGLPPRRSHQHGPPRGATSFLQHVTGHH
Chain of Activin receptor type-1B (Homo sapiens) (P36896 whole entry): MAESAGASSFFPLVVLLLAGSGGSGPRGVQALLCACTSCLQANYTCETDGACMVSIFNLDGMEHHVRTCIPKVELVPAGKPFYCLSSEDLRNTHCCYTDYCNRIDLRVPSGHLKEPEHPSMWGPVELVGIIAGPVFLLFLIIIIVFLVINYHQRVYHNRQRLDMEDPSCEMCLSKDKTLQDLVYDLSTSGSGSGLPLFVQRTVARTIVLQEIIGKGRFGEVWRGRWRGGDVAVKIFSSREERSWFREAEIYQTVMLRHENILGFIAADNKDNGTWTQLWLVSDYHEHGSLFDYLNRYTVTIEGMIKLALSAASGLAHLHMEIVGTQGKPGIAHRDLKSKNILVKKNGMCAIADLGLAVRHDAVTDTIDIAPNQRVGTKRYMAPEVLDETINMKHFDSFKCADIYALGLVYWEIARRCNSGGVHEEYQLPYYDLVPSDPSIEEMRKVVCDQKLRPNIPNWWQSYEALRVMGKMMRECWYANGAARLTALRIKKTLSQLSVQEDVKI
Chain of Receptor-interacting serine/threonine-protein kinase 2 (Homo sapiens) (O43353 whole entry): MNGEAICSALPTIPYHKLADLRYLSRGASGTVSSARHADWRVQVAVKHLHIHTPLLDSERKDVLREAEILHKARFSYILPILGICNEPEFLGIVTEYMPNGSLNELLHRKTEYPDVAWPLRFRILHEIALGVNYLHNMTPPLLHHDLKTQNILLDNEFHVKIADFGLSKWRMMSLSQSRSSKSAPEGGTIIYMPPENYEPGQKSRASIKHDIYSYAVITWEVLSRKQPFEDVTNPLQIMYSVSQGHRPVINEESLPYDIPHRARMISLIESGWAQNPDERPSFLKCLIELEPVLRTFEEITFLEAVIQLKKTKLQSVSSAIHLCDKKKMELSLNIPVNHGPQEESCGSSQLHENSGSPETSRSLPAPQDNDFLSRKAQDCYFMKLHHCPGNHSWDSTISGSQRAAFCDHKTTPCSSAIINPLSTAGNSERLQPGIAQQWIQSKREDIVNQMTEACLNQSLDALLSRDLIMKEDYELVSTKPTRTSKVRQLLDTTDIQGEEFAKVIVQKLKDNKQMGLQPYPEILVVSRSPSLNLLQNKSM
Chain of Receptor-interacting serine/threonine-protein kinase 1 (Homo sapiens) (Q13546 whole entry): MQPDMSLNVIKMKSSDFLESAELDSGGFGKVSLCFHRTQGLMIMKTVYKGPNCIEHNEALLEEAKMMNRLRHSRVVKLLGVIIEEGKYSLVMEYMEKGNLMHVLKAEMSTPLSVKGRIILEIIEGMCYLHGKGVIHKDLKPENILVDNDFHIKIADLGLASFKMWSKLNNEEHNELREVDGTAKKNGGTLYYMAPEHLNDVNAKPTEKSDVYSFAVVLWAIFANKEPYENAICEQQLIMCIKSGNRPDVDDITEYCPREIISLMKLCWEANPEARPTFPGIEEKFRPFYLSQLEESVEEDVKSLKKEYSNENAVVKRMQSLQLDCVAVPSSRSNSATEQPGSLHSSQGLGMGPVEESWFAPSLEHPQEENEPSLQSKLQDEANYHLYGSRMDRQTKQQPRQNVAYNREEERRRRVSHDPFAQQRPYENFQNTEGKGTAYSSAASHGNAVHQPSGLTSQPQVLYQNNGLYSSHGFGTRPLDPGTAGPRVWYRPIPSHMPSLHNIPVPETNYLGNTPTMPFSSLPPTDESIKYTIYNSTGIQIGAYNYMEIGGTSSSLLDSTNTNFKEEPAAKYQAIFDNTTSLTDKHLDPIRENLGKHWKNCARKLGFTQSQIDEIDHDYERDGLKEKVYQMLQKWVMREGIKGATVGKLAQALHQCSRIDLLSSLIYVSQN

Cn1cncc1[C@@](O)(COc1ccc(C#N)cc1-c1ccc(OC(F)(F)F)cc1)c1ccc(C#N)cc1 [A-108]
residual activity [1]: 100% | residual activity [2]: 100% | residual activity [3]: 90% | residual activity [4]: 63% | residual activity [5]: 100% | residual activity [6]: 64% | residual activity [7]: 84% | residual activity [8]: 38% | residual activity [9]: 89% | residual activity [10]: 100% | residual activity [11]: 89% | residual activity [12]: 89% | residual activity [13]: 100% | residual activity [14]: 100% | residual activity [15]: 100% | residual activity [16]: 100% | residual activity [17]: 100% | residual activity [18]: 92% | residual activity [19]: 75% | residual activity [20]: 100% | residual activity [21]: 100% | residual activity [22]: 94% | residual activity [23]: 94% | residual activity [24]: 97% | residual activity [25]: 81% | residual activity [26]: 100% | residual activity [27]: 94% | residual activity [28]: 100% | residual activity [29]: 78% | residual activity [30]: 100% | residual activity [31]: 100% | residual activity [32]: 90% | residual activity [33]: 100% | residual activity [34]: 96% | residual activity [35]: 100% | residual activity [36]: 100% | residual activity [37]: 100% | residual activity [38]: 100% | residual activity [39]: 98% | residual activity [40]: 92% | residual activity [41]: 85% | residual activity [42]: 100% | residual activity [43]: 100% | inhibition [44]: 23.1% | inhibition [45]: 2.79%

Cn1cncc1[C@](O)(COc1ccc(C#N)cc1-c1ccc(OC(F)(F)F)cc1)c1ccc(C#N)cc1 [ABT-100]
residual activity [1]: 87% | residual activity [2]: 89% | residual activity [3]: 85% | residual activity [4]: 95% | residual activity [5]: 82% | residual activity [6]: 78% | residual activity [7]: 64% | residual activity [8]: 58% | residual activity [9]: 52% | residual activity [10]: 78% | residual activity [11]: 62% | residual activity [12]: 87% | residual activity [13]: 62% | residual activity [14]: 98% | residual activity [15]: 86% | residual activity [16]: 100% | residual activity [17]: 72% | residual activity [18]: 89% | residual activity [19]: 70% | residual activity [20]: 100% | residual activity [21]: 89% | residual activity [22]: 76% | residual activity [23]: 74% | residual activity [24]: 100% | residual activity [25]: 78% | residual activity [26]: 100% | residual activity [27]: 81% | residual activity [28]: 100% | residual activity [29]: 97% | residual activity [30]: 100% | residual activity [31]: 100% | residual activity [32]: 79% | residual activity [33]: 100% | residual activity [34]: 89% | residual activity [35]: 100% | residual activity [36]: 95% | residual activity [37]: 90% | residual activity [38]: 100% | residual activity [39]: 98% | residual activity [40]: 100% | residual activity [41]: 87% | residual activity [42]: 61% | residual activity [43]: 94% | inhibition [44]: 0.0774% | inhibition [45]: 23.3%
